Laboratory results: PMC5727165, “A switch in nucleotide affinity governs activation of the Src and Tec family kinases” (Scientific Reports, 2017)
“Also recorded” adds a separate entry of the source.

Columns and labels:
Format in all cases: binding
[1] = target: T1, Src^32KΔC (Mus musculus, UniProt P05480); experiment: Competition nucleotide displacement assay (Mant-ADP, fluorescence anisotropy)
T1 construct: mouse Src^85-523 (Src^32KΔC); GST (cleaved yes); made in house; host or cells: baculovirus-infected Sf9 insect cells
Description: Figure 2 Itk adopts a Src-like autoinhibited conformation. (a) Competition nucleotide displacement assay for Src^32KΔC. 40 μM Src^32KΔC was incubated with 40 μM Mant-ADP until equilibrium was established. Unlabelled ADP or AMPPNP was titrated into the reaction and fluorescence anisotropy monitored. […] (b) Small angle X-ray scattering curves for Itk^32K (cyan), Src^32K (magenta), Src^32KΔC (blue), and Src^32K R175L (green). […] (d) Table of physical parameters obtained from the scattering curves for Itk^32K, Src^32K, Src^32KΔC, and Src^32K R175L. (e)Ab initio model of Itk^32K and docking of autoinhibited Src (2SRC.pdb) into the molecular envelope. Two orientations of the envelope are shown for clarity. (f) Ab initio molecular envelope for Src^32KΔC illustrates the fit of the crystal structure of autoinhibited Src. TEXT PRINTED IN THE PICTURE: (a) ADP: Src^32KΔC Ki (mM): 0.03 ± 0.008 | (a) ANP: Src^32KΔC Ki (mM): 0.69 ± 0.140
The binding constants for ADP and AMPPNP were determined for Src and Itk proteins by fluorescence anisotropy, using 2′/3′-Mant-labelled nucleotides (Jena Bioscience). Increasing concentrations of Itk^32K, Itk^L351A or Src^32K were incubated with 40 μM Mant-nucleotide in 30 mM Tris pH 7.5, 200 mM NaCl, 5 mM MgCl2, and 1 mM TCEP. Measurements were made with a Perkin Elmer LS50B fluorimeter (λex = 355 nm, λem = 447 nm) at 20 °C. For each data point 50–60 measurements, each with an integration time of 1 s, were averaged. For competition nucleotide displacement assays, 40–80 μM of protein was incubated with 40 μM Mant-ADP until equilibrium was established. Unlabelled nucleotide was titrated into the reaction and fluorescence anisotropy monitored. The equilibrium inhibition constant for the unlabelled nucleotide was calculated from the fitted curve.

[2] = target: T2, Itk^32K (Homo sapiens, UniProt Q08881); experiment: Differential scanning fluorimetry (thermal stability vs nucleotide concentration); settings: same nucleotide concentrations, vs ATP or AMPPNP
T2 construct: Human Itk^171–620 (Itk^32K); GST (cleaved yes); made in house; host or cells: baculovirus-infected Sf9 insect cells
T2 sequence (Q08881 171-620): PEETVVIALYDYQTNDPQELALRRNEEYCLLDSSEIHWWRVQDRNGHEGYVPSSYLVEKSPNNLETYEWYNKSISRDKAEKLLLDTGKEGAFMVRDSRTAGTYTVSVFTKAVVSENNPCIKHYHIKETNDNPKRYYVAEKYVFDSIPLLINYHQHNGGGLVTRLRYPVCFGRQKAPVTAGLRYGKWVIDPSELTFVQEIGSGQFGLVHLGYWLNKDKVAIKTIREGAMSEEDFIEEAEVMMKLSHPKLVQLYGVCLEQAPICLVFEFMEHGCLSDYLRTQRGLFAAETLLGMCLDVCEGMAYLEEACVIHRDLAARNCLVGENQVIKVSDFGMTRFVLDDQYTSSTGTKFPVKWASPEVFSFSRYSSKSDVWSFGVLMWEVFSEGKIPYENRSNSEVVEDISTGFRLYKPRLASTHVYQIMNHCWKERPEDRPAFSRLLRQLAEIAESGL
Description: We noted that the thermal stability of Src^32K initially decreases at low concentrations of ATP, before rising again at higher concentrations. This was reproducible and correlates with autophosphorylation of Tyr416 during the course of the assay (Supplementary Fig. 4h). Thermal stabilities as a function of nucleotide concentration were measured by differential scanning fluorimetry (DSF). Samples contained 0.1 mg/ml protein in 50 mM Tris pH 7.5, 150 mM NaCl, 1 mM TCEP, and 5 mM MgCl2 with ADP, ATP, or AMPPNP concentrations ranging from 0–16 mM. Samples were measured in triplicate using a BioRad iQ™5 Multicolor Real-Time PCR Detection System. For detection of phosphorylated protein, samples were diluted and 1 ng and 15 ng were loaded to SDS-PAGE for Src and Itk proteins, respectively. Phosphorylation was measured by immunoblot.

[3] = target: T1, Src^32KΔC; experiment: as above; settings: vs AMPPNP
Description: Having observed that Itk^32K binds and is stabilised by ADP in the absence of a C-terminal tail, we investigated whether the C-terminal tail of Src influences its nucleotide binding or conformation in vitro, using a construct of Src lacking its C-tail (Src^32KΔC) and a SH2 domain mutant of Src that is incapable of binding phosphotyrosine peptides (Src^32K R175L, Supplementary Fig. 3a,b)[39]. […] Thermal stability measurements support the stabilisation of Src^32KΔC by ADP (Supplementary Fig. 6a). Thermal stabilities as a function of nucleotide concentration were measured by differential scanning fluorimetry (DSF). Samples contained 0.1 mg/ml protein in 50 mM Tris pH 7.5, 150 mM NaCl, 1 mM TCEP, and 5 mM MgCl2 with ADP, ATP, or AMPPNP concentrations ranging from 0–16 mM. Samples were measured in triplicate using a BioRad iQ™5 Multicolor Real-Time PCR Detection System. For detection of phosphorylated protein, samples were diluted and 1 ng and 15 ng were loaded to SDS-PAGE for Src and Itk proteins, respectively. Phosphorylation was measured by immunoblot.

T1 sequence (P05480 85-523, stated change not applied): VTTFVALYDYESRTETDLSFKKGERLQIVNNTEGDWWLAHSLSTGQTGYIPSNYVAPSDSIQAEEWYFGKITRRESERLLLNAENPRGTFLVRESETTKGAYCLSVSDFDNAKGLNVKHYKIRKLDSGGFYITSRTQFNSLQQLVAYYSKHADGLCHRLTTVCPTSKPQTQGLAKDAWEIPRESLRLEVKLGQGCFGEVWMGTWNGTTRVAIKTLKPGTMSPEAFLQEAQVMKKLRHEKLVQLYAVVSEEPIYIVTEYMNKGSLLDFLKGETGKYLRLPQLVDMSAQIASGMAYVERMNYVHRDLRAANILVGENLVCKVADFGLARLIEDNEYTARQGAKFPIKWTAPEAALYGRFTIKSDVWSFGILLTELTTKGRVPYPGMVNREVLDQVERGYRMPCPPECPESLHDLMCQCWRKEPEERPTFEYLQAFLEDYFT

Nc1ncnc2c1ncn2[C@@H]1O[C@H](COP(=O)(O)OP(=O)(O)O)[C@@H](O)[C@H]1O [ADP]
Ki ([1]; 40 μM Src^32KΔC, 40 μM Mant-ADP, read-out: Ki (equilibrium inhibition constant)): 30 ± 8 µM | fold difference in Ki, ADP preferred over AMPPNP ([1]; Src^32KΔC, displacement of Mant-ADP): approximately 23 fold | thermal stabilisation compared with other nucleotides [2]: to a greater extent; also recorded: higher thermal stability | thermal stabilisation compared with other nucleotides [3]: higher thermal stability
